{"source": "patent US10555987B2", "about": "“GHRH agonists for the treatment of ischemic disorders” (UNIVERSITY OF MIAMI, priority 2012, dated 2020)", "key": {"[1]": {"tested_on": "GH release", "assay": "In vivo endocrine activity, GH release after intravenous administration (Table 8)", "conditions": "rat, i.v. injection"}, "[2]": {"tested_on": "GH release", "assay": "In vivo endocrine activity, GH release after subcutaneous administration (Table 9)", "conditions": "rat, subcutaneous (s.c.) injection", "method": "Subcutaneous Administration. Adult male rats were used and anesthetized with pentobarbital (6 mg/100 g, b.w.), by i.p. injection. […] Blood samples were taken from the jugular vein 5, 15 and/or 30 minutes after the injection. The blood samples were centrifuged, plasma was removed and the GH level was measured byELISA. The results are summarized in terms of potency in Table 9."}, "[3]": {"tested_on": "GH release", "assay": "GH releasing potency in vivo, subcutaneous administration (Example 14, Table 12)", "design": "species or system rat", "conditions": "s.c.", "summary_of_the_method": "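Potency is expressed relative to GHRH(1-29)NH2 and JI-38 (each = 1), via equivalent GHRH(1-29)NH2 dose read from a standard curve. Peptides in 5% mannitol given i.v. or s.c. to anaesthetised male Sprague-Dawley rats (200-250 g); serum GH measured by ELISA at selected times.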"}, "[4]": {"tested_on": "GH release", "assay": "GH releasing potency in vivo, intravenous administration (Example 14, Table 13)", "design": "species or system rat", "conditions": "i.v.", "method": "Male Sprague-Dawley rats, weighing 200-250 g, were purchased from Charles River Laboratory (Wilmington, Mass.) and used for experiments. All animal procedures were approved by the Veterans Affairs Animal Care and Use Committee and were conducted in accordance with additional institutional guidelines as well. Briefly, groups of 5-6 animals were used in each experiment. The rats were anesthetized with 50 mg/kg of sodium pentobarbital (Nembutal, Lundbeck Inc., Deerfield, Ill.). Twenty min after inducing anesthesia, GHRH(1-29)NH2, JI-38, or new analogs were injected into the animals intravenously (i.v.) or subcutaneously (s.c.). The peptides were dissolved in 0.01 M acetic acid to get 1 μg/μl stock solution, and then diluted with 5% mannitol. Control rats received 5% mannitol only. Blood samples were collected from the jugular vein at selected times and were used for serum preparation. Concentrations of GH in rat sera were determined by ELISA. The relative potencies of tested peptides were calculated using GHRH(1-29)NH2 and JI-38 for comparison, whose potency was defined as 1. The equivalent dosage of GHRH(1-29)NH2 to reach the same level of serum growth hormone release after injection of the specific tested peptide was determined from a GHRH(1-29)NH2 standard curve using Origin 6.0 software. […] Serum GH was determined using the rat Growth Hormone ELISA kit (ALPCO Diagnostics, Mill Valley, Calif.) according to the manufacturer's instruction. Absorbance at 405 nm was measured by a Victor 3 Multi-label Counter (Perkin-Elmer, Waltham, Md.)."}, "[5]": {"target": "T1, GHRH receptor (Homo sapiens, UniProt Q02643)", "T1 sequence (Q02643 23-423)": "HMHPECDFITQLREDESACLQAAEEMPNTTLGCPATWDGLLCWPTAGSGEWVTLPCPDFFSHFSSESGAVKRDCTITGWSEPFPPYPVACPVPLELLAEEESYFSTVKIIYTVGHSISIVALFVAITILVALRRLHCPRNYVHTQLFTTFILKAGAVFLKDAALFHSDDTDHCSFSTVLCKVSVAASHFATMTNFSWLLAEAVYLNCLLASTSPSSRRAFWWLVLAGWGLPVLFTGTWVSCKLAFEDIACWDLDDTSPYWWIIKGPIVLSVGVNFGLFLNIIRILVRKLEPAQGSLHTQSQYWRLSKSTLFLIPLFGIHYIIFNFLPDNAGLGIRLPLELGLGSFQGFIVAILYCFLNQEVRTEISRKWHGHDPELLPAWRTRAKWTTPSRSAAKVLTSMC", "assay": "Receptor binding in vitro, 125I-labeled [His1,Nle27]-hGHRH(1-32)NH2, membrane receptors of human anterior pituitary cells (Table 14)", "source_text": "Normal human pituitary was purchased from the National Hormone and Peptide Program (UCLA Medical Center, Torrance, Calif.)."}, "[6]": {"target": "T1, GHRH receptor", "assay": "GHRH receptor binding, competition with 125I-labeled JV-1-42, human pituitary membrane homogenates (Table 5)", "design": "Normal human pituitaries were purchased from the National Hormone and Peptide Program; tissue National Hormone and Peptide Program (A.F. Parlow, Harbor-UCLA Medical Center, Torrance, Calif.); host or cells: normal human pituitary, membrane fraction", "method": "Normal human pituitaries were purchased from the National Hormone and Peptide Program (A.F. Parlow, Los Angeles, County Harbor-UCLA Medical Center, Torrance, Calif.). Briefly, in competitive binding analysis, ^125I-labeled JV-1-42 ([…]) was displaced by GHRH agonists at 10^−6 to 10^−12 M.\nThe final binding affinities were expressed as IC50 values and were calculated by using the LIGAND PC computerized curve-fitting program of Munson and Rodbard as modified by McPherson."}, "[7]": {"target": "T1, GHRH receptor", "assay": "GHRH receptor binding, competition with 125I-labeled JV-1-42, human pituitary membrane homogenates (Table 7)", "design": "Normal human pituitaries were purchased from the National Hormone and Peptide Program; tissue National Hormone and Peptide Program (A.F. Parlow, Harbor-UCLA Medical Center, Torrance, Calif.); host or cells: normal human pituitary, membrane fraction", "conditions": "JI-38 = 1, Table 7", "excerpt": "Normal human pituitaries were purchased from the National Hormone and Peptide Program (A.F. Parlow, Los Angeles, County Harbor-UCLA Medical Center, Torrance, Calif.)."}}, "note": "Non-standard residues stand in square brackets, D forms with d. Residues, ends and D or L forms follow the SMILES beside them. *: point of attachment. Desaminotyrosyl = O=C(CCc1ccc(O)cc1)*; Nle = CCCC[C@H](N)C(=O)O; Orn = NCCC[C@H](N)C(=O)O; Abu = CC[C@H](N)C(=O)O; GABA = NCCCC(=O)O", "data": [{"smiles": "CCCC[C@H](NC(=O)[C@@H](NC(=O)[C@H](CC(=O)O)NC(=O)[C@H](CCC(N)=O)NC(=O)[C@H](CC(C)C)NC(=O)[C@H](CC(C)C)NC(=O)[C@H](CCCN)NC(=O)[C@H](CCCNC(=N)N)NC(=O)[C@H](C)NC(=O)[C@H](CO)NC(=O)[C@H](CC(C)C)NC(=O)[C@H](CCC(N)=O)NC(=O)[C@H](CC)NC(=O)[C@H](CC(C)C)NC(=O)[C@@H](NC(=O)[C@H](CCCN)NC(=O)[C@H](CCCNC(=N)N)NC(=O)[C@H](Cc1ccc(O)cc1)NC(=O)[C@H](CO)NC(=O)[C@H](CC(N)=O)NC(=O)[C@@H](NC(=O)[C@H](Cc1ccccc1)NC(=O)[C@@H](NC(=O)[C@H](C)NC(=O)[C@H](CC(=O)O)NC(=O)[C@@H](C)NC(=O)CCc1ccc(O)cc1)[C@@H](C)CC)[C@@H](C)O)C(C)C)[C@@H](C)CC)C(=O)N[C@@H](CO)C(=O)N[C@@H](CCCNC(=N)N)C(=O)N[C@@H](CCC(N)=O)C(=O)NCCCC(N)=O", "note": "[Peptide P-29702, [Dat^1, D-Ala^2, Orn^12, Abu^15, Orn^21, Nle^27, Gln-Gab^30]hGHRH(1-30)NH2] (Desaminotyrosyl-[dA]DAIFTNSYR[Orn]VL[Abu]QLSAR[Orn]LLQDI[Nle]SRQ[GABA]-NH2)", "values": [{"measurement": "GH releasing potency in vivo relative to JI-38 (=1)", "setting": "[1]; 5 min after", "value": 0.98}, {"measurement": "GH releasing potency in vivo relative to JI-38 (=1)", "setting": "[1]; 15 min after", "value": 0.99}, {"measurement": "GH releasing potency in vivo relative to JI-38 (=1)", "setting": "[1]; 30 min after", "value": 1.22}, {"measurement": "GH releasing potency relative to JI-38 (=1)", "setting": "[2]; 15 min after", "value": 0.53}, {"measurement": "GH releasing potency relative to JI-38 (=1)", "setting": "[2]; 30 min after", "value": 0.73}, {"measurement": "Serum GH level at selected time after injection (ng/ml), 0 min", "setting": "[3]; male rats, dose 3 μg/kg, 0 min, mean ± SEM", "value": "43.7 ± 5^ ng/ml"}, {"measurement": "Serum GH level at selected time after injection (ng/ml), 15 min", "setting": "[3]; male rats, dose 3 μg/kg, 15 min, mean ± SEM", "value": "103.7 ± 23.1", "unit": "ng/mL"}, {"measurement": "Serum GH level at selected time after injection (ng/ml), 30 min", "setting": "[3]; male rats, dose 3 μg/kg, 30 min, mean ± SEM", "value": "85 ± 27.8", "unit": "ng/mL"}, {"measurement": "Relative potency compared to GHRH(1-29), 15 min", "setting": "[3]; 15 min", "value": 22.4}, {"measurement": "Relative potency compared to JI-38, 15 min", "setting": "[3]; 15 min", "value": 0.35}, {"measurement": "Relative potency compared to GHRH(1-29), 30 min", "setting": "[3]; 30 min", "value": 53.5}, {"measurement": "Relative potency compared to JI-38, 30 min", "setting": "[3]; 30 min", "value": 0.48}, {"measurement": "Relative potency, 5 min", "setting": "[4]; 5 min, JI-38 = 1", "value": 1.07}, {"measurement": "Relative potency, 15 min", "setting": "[4]; 15 min, JI-38 = 1", "value": 1.38}, {"measurement": "Serum GH level at selected time after injection (ng/ml), 0 min", "setting": "[4]; dose 1 μg/kg, 0 min, mean ± SEM", "value": "47.7 ± 3.4", "unit": "ng/mL"}, {"measurement": "Serum GH level at selected time after injection (ng/ml), 5 min", "setting": "[4]; dose 1 μg/kg, 5 min, mean ± SEM", "value": "578 ± 87.7", "unit": "ng/mL"}, {"measurement": "Serum GH level at selected time after injection (ng/ml), 15 min", "setting": "[4]; dose 1 μg/kg, 15 min, mean ± SEM", "value": "273 ± 40.8", "unit": "ng/mL"}, {"measurement": "Relative affinity (Binding potency) compared to JI-38", "setting": "[5]; JI-38 = 1", "value": 0.83}, {"measurement": "Relative affinity (Binding potency) compared to hGHRH(1-29)", "setting": "[5]; hGHRH(1-29)NH2 = 1", "value": 2.31}, {"measurement": "Relative affinity (Binding potency) vs GHRH", "setting": "[6]; GHRH(1-29) = 1, Table 5", "value": 81.2}, {"measurement": "Relative affinity (Binding potency) vs JI-38", "setting": "[6]; JI-38 = 1, Table 5", "value": 34.2}, {"measurement": "Relative affinity (Binding potency) vs JI-38", "setting": "[7]", "value": 5.06}]}]}
